Source: article PMC6979384, “Characterization of the plant homeodomain (PHD) reader family for their histone tail interactions” (Epigenetics & Chromatin, 2020)

Columns and labels:
Assay in all cases: Histone peptide microarray
Format in all cases: binding, human
PHF2 = details: PHF2, GST-tagged; arrays performed twice, n of 4
Excerpt: (§1) To more comprehensively define the histone interactions of the 31 PHD readers identified from the domain microarray analyses, we probed each on an alternate microarray platform containing a library of 293 synthetic histone peptides with single or combinatorial PTMs (Additional file 2: Figure S4 and Additional file 3: Table S2).
(§2) The 31 GST-tagged PHD readers identified in the PHD finger domain array were expressed and purified as previously. Histone peptide arrays and peptide pulldown assays were conducted as recently described (specifically, the optimized protocol from Petell et al. for the former).
(§3) Supplementary file 13072_2020_328_MOESM3_ESM.xlsx: Additional file 3: Table S2. […] Excel Tab Peptide List is a compiled list of the entire 293 histone peptide library with amino acid sequence ranges. […] Each number corresponds to the peptide number designated in Peptide List. Excel Tab Average Signals is a compiled set of binding data: chromatin reader at 0.5 μM vs. entire 293 peptide library. Data is presented as the average and standard deviation of 4 replicates. The average signals are colored to indicate signal intensity with green being strong and white being weak/low. […] Key: red= stronger relative binding; blue = weaker relative binding. Excel Tab Array info summary is a table summarizing the domains, sequence coverage, array signal range, and noise for each of the GST-tagged readers assayed on the peptide microarrays.

KDM5A (3) = details: KDM5A (3), GST-tagged; arrays performed twice, n of 4
Excerpt: as §1, §2, §3

PHF23 = details: PHF23, GST-tagged; arrays performed twice, n of 4
Excerpt: as §1, §2, §3

DPF2 (PPC2W2) = details: DPF2 (PPC2W2), GST-tagged; arrays performed twice, n of 4
Excerpt: as §1, §2, §3

KDM5A (1) = details: KDM5A (1), GST-tagged; arrays performed twice, n of 4
Excerpt: as §1, §2, §3

PHRF1 (RP) = details: PHRF1 (RP), GST-tagged; arrays performed twice, n of 4
Excerpt: as §1, §2, §3

KDM4C (TTP) = details: KDM4C (TTP), GST-tagged; arrays performed twice, n of 4
Excerpt: as §1, §2, §3

ING1 = details: ING1, GST-tagged; arrays performed twice, n of 4
Excerpt: as §1, §2, §3

PHF21A = details: PHF21A, GST-tagged; arrays performed twice, n of 4
Excerpt: as §1, §2, §3

ING3 = details: ING3, GST-tagged; arrays performed twice, n of 4
Excerpt: as §1, §2, §3

DIDO1 = details: DIDO1, GST-tagged; arrays performed twice, n of 4
Excerpt: as §1, §2, §3

AIRE (PP) = details: AIRE (PP), GST-tagged; arrays performed twice, n of 4
Excerpt: as §1, §2, §3

CHD5 (PPCC) = details: CHD5 (PPCC), GST-tagged; arrays performed twice, n of 4
Excerpt: as §1, §2, §3

CHD5 (PCC) = details: CHD5 (PCC), GST-tagged; arrays performed twice, n of 4
Excerpt: as §1, §2, §3

KDM5B (3) = details: KDM5B (3), GST-tagged; arrays performed twice, n of 4
Excerpt: as §1, §2, §3

TRIM66 (PB) = details: TRIM66 (PB), GST-tagged; arrays performed twice, n of 4
Excerpt: as §1, §2, §3

ING2 = details: ING2, GST-tagged; arrays performed twice, n of 4
Excerpt: as §1, §2, §3

KDM7A = details: KDM7A, GST-tagged; arrays performed twice, n of 4
Excerpt: as §1, §2, §3

ING4 = details: ING4, GST-tagged; arrays performed twice, n of 4
Excerpt: as §1, §2, §3

MLL5 = details: MLL5, GST-tagged; arrays performed twice, n of 4
Excerpt: as §1, §2, §3

PHF13 = details: PHF13, GST-tagged; arrays performed twice, n of 4
Excerpt: as §1, §2, §3

PHF8 = details: PHF8, GST-tagged; arrays performed twice, n of 4
Excerpt: as §1, §2, §3

BPTF (PB) = details: BPTF (PB), GST-tagged; arrays performed twice, n of 4
Excerpt: as §1, §2, §3

BAZ2B = details: BAZ2B, GST-tagged; arrays performed twice, n of 4
Excerpt: as §1, §2, §3

CHD4 (PPCC) = details: CHD4 (PPCC), GST-tagged; arrays performed twice, n of 4
Excerpt: as §1, §2, §3

ING5 = details: ING5, GST-tagged; arrays performed twice, n of 4
Excerpt: as §1, §2, §3

MORC3 (CW) = details: MORC3 (CW), GST-tagged; arrays performed twice, n of 4
Excerpt: as §1, §2, §3

RAG2 = details: RAG2, GST-tagged; arrays performed twice, n of 4
Excerpt: as §1, §2, §3

SP140L = details: SP140L, GST-tagged; arrays performed twice, n of 4
Excerpt: as §1, §2, §3

TAF3 = details: TAF3, GST-tagged; arrays performed twice, n of 4
Excerpt: as §1, §2, §3

Row | Array Heatmap value (peptide array binding signal) (PHF2) | Array Heatmap value (peptide array binding signal) (KDM5A (3)) | Array Heatmap value (peptide array binding signal) (PHF23) | Array Heatmap value (peptide array binding signal) (DPF2 (PPC2W2)) | Array Heatmap value (peptide array binding signal) (KDM5A (1)) | Array Heatmap value (peptide array binding signal) (PHRF1 (RP)) | Array Heatmap value (peptide array binding signal) (KDM4C (TTP)) | Array Heatmap value (peptide array binding signal) (ING1) | Array Heatmap value (peptide array binding signal) (PHF21A) | Array Heatmap value (peptide array binding signal) (ING3) | Array Heatmap value (peptide array binding signal) (DIDO1) | Array Heatmap value (peptide array binding signal) (AIRE (PP)) | Array Heatmap value (peptide array binding signal) (CHD5 (PPCC)) | Array Heatmap value (peptide array binding signal) (CHD5 (PCC)) | Array Heatmap value (peptide array binding signal) (KDM5B (3)) | Array Heatmap value (peptide array binding signal) (TRIM66 (PB)) | Array Heatmap value (peptide array binding signal) (ING2) | Array Heatmap value (peptide array binding signal) (KDM7A) | Array Heatmap value (peptide array binding signal) (ING4) | Array Heatmap value (peptide array binding signal) (MLL5) | Substance | further results
1 | 0.4562 | 0.4276 | 0.5272 | 0.6914 | 0.4987 | 0.4073 | 0.5553 | 0.5248 | 0.4992 | 0.4849 | 0.6459 | 0.5703 | 0.5916 | 0.8072 | 0.5016 | 0.5841 | 0.5831 | 0.4671 | 0.4864 | 0.5505 | H4K8ac + K12ac: H4 1-23 | Array Heatmap value (peptide array binding signal) (PHF13): 0.6286; Array Heatmap value (peptide array binding signal) (PHF8): 0.3425; Array Heatmap value (peptide array binding signal) (BPTF (PB)): 0.3598; Array Heatmap value (peptide array binding signal) (BAZ2B): 0.5085; Array Heatmap value (peptide array binding signal) (CHD4 (PPCC)): 0.5759; Array Heatmap value (peptide array binding signal) (ING5): 0.3813; Array Heatmap value (peptide array binding signal) (MORC3 (CW)): 0.3777; Array Heatmap value (peptide array binding signal) (RAG2): 0.2531; Array Heatmap value (peptide array binding signal) (SP140L): 0.3826; Array Heatmap value (peptide array binding signal) (TAF3): 0.2763
2 | 0.4411 | 0.4422 | 0.5223 | 0.6725 | 0.512 | 0.4283 | 0.5368 | 0.5081 | 0.4807 | 0.4639 | 0.6199 | 0.5419 | 0.5684 | 0.8384 | 0.4924 | 0.5664 | 0.5825 | 0.4148 | 0.4785 | 0.5364 | H4K8ac + K20ac: H4 1-23 | Array Heatmap value (peptide array binding signal) (PHF13): 0.5975; Array Heatmap value (peptide array binding signal) (PHF8): 0.3864; Array Heatmap value (peptide array binding signal) (BPTF (PB)): 0.3587; Array Heatmap value (peptide array binding signal) (BAZ2B): 0.4848; Array Heatmap value (peptide array binding signal) (CHD4 (PPCC)): 0.5794; Array Heatmap value (peptide array binding signal) (ING5): 0.3709; Array Heatmap value (peptide array binding signal) (MORC3 (CW)): 0.3621; Array Heatmap value (peptide array binding signal) (RAG2): 0.2452; Array Heatmap value (peptide array binding signal) (SP140L): 0.3646; Array Heatmap value (peptide array binding signal) (TAF3): 0.2852
3 | 0.4717 | 0.425 | 0.5182 | 0.6637 | 0.4687 | 0.4351 | 0.4892 | 0.529 | 0.4767 | 0.4609 | 0.6429 | 0.5176 | 0.5492 | 0.7957 | 0.4989 | 0.6284 | 0.5955 | 0.3784 | 0.47 | 0.5457 | H4K16ac + K20ac: H4 1-23 | Array Heatmap value (peptide array binding signal) (PHF13): 0.6126; Array Heatmap value (peptide array binding signal) (PHF8): 0.3492; Array Heatmap value (peptide array binding signal) (BPTF (PB)): 0.3565; Array Heatmap value (peptide array binding signal) (BAZ2B): 0.4551; Array Heatmap value (peptide array binding signal) (CHD4 (PPCC)): 0.5676; Array Heatmap value (peptide array binding signal) (ING5): 0.3611; Array Heatmap value (peptide array binding signal) (MORC3 (CW)): 0.3738; Array Heatmap value (peptide array binding signal) (RAG2): 0.2369; Array Heatmap value (peptide array binding signal) (SP140L): 0.3563; Array Heatmap value (peptide array binding signal) (TAF3): 0.2987
4 | 0.5298 | 0.4753 | 0.5865 | 0.7325 | 0.5302 | 0.5208 | 0.5634 | 0.5918 | 0.5171 | 0.5554 | 0.7637 | 0.484 | 0.6446 | 0.835 | 0.545 | 0.6554 | 0.6187 | 0.3878 | 0.5155 | 0.5849 | H4S1p + K5ac + K8ac + K12ac + K16ac: H4 1-23 | Array Heatmap value (peptide array binding signal) (PHF13): 0.677; Array Heatmap value (peptide array binding signal) (PHF8): 0.3922; Array Heatmap value (peptide array binding signal) (BPTF (PB)): 0.3984; Array Heatmap value (peptide array binding signal) (BAZ2B): 0.5342; Array Heatmap value (peptide array binding signal) (CHD4 (PPCC)): 0.615; Array Heatmap value (peptide array binding signal) (ING5): 0.4228; Array Heatmap value (peptide array binding signal) (MORC3 (CW)): 0.4113; Array Heatmap value (peptide array binding signal) (RAG2): 0.2856; Array Heatmap value (peptide array binding signal) (SP140L): 0.3938; Array Heatmap value (peptide array binding signal) (TAF3): 0.311
